Results taken from patent US11246882B2, “Pharmaceutical composition for inhibiting resistance against anticancer drugs of patient suffering from ovarian cancer comprising NAG-1 inhibitor as active ingredient” (PUSAN NATIONAL UNIVERSITY INDUSTRY-UNIVERSITY COOPERATION …, priority 2015, dated 2022).

Key:
[1] = system: ovarian cancer stem cells (R182); test: Cell viability by MTT assay: resistance of ovarian cancer stem cells against Taxol under NAG-1 regulation; assay type: cell-based, Human
Protocol: Human epithelial ovarian cancer stem cell line R182 cells were provided by Prof. Gil Mor (Yale University School of Medicine). A2780 cells were purchased from American Type Culture Collection (Manassas, Va.). Cells were maintained in RPMI 1640 medium (supplemented with 20% [v/v] heat-inactivated FBS, 50 U/ml penicillin, and […] streptomycin) in a 5% CO2 humidified incubator at 37° C. Cell numbers were counted by trypan blue (Sigma-Aldrich, St. Louis, Mo., USA) using a hemocytometer according to dye exclusion assay.
200 μl of the cultured cancer cells were seeded into a 96-well plate to have 5×10^3 cells/well, and cultured for 24 hours at a temperature of 37° C. in a wet incubator with carbon 5% and […] supplied thereto. Then, an empty vector (pSilencer 4.1-CMV-neo vector, Ambion, USA) and shRNA specific to NAG-1 were added to the ovarian cancer cells, cultured for 48 hours, and treated for 48 hours with an anticancer drug, Taxol, according to the concentrations. 50 μl of MTT solution (1 mg/ml) in PBS was added to each well, and cultured again for 6 hours. After the formation of formazan was confirmed, the MTT solution was completely removed. […] Afterwards, a micro plate reader (Molecular Devices, USA) was used to measure absorbance at 560 nm. Accordingly, the relative cell viability was calculated when cells that were not treated with an anticancer drug was considered as 100%. […]

ovarian cancer cells = test: Treatment of ovarian cancer cells with the anticancer drug Taxol; assay type: cell-based; settings: ovarian cancer cells other than stem cells

Which “resistance against the anticancer drug (Taxol), amount of living cells by MTT assay” value ([1]; R182 cells, shRNA added, cultured 48 hours, then Taxol 48 hours, compared with empty vector (FIG. 5)) does the source give for “shRNA specific to NAG-1: shRNA having SEQ ID NO: 1 (ACAUGCACGCGCAGAUCAA), inhibitor of expression of NAG-1 protein; expression vector” here?
Its value is “the resistance against the anticancer drug was reduced”.

Which “cell death of ovarian cancer stem cells on treatment with anticancer drug” value ([1]; ovarian cancer stem cells) does the source give for `CC(=O)O[C@H]1C(=O)[C@@]2(C)[C@H]([C@H](OC(=O)c3ccccc3)[C@]3(O)C[C@H](OC(=O)[C@H](O)[C@@H](NC(=O)c4ccccc4)c4ccccc4)C(C)=C1C3(C)C)[C@]1(OC(C)=O)CO[C@@H]1C[C@@H]2O` [Taxol] here?
The value was “ovarian cancer stem cells did not die”.

And the “cell death of ovarian cancer cells on treatment with anticancer drug” value (ovarian cancer cells)?
The value was “ovarian cancer cells die”.
